Measurements: patent publication US7144901B2, “Oxadiazole derivatives and drugs containing these derivatives as the active ingredient” (ONO Pharmaceutical Co.,Ltd., priority 1999, dated 2006)

What was measured:
Type in all cases: biochemical
cathepsin B = cathepsin B (Homo sapiens, UniProt P07858); assay: Measurement of cathepsin B inhibitory activity
Experimental: (ii) Measurement of Cathepsin B Inhibitory Activity
10 μL of Synthesized substrate (carbobenzoxy-L-arginyl-L-arginine-4-methyl-chromanyl-7-amide or carbobenzoxy-L-phenylalanyl-L-arginine-4-methyl-chromanyl-7-amide) solution of several concentrations, 10 μL of cysteine protease inhibitor solution of several concentrations, 70 μL of cathepsin B enzyme reaction buffer (mixture of 400 mmol/L in acetic acid, 4 mmol/L EDTA, 8 mmol/L DDT to adjust to pH 5.5) and 10 μL of cathepsin B enzyme solution were mixed and the increase of fluorescence intensity was measured (λex (excitation wavelength)=355 nm, λem (fluorescence wavelength)=460 nm) when reacted at 37° C.

cathepsin L = cathepsin L (Homo sapiens, UniProt P07711); assay: Measurement of cathepsin L inhibitory activity
cathepsin L, sequence (P07711 114-333, species assumed): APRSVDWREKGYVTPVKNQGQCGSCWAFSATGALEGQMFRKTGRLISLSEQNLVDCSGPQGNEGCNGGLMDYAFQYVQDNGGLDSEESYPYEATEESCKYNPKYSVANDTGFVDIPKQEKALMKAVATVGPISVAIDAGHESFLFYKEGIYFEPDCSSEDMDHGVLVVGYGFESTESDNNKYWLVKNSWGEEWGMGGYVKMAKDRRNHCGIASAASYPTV
Experimental: (iv) Measurement of Cathepsin L Inhibitory Activity
5 μL of Synthesized substrate (carbobenzoxy-L-phenylalanyl-L-arguine-4-methyl-chromanyl-7-amide or L-prolyl-L-phenylalanyl-L-arguinine-4-methyl-chromanyl-7-amide) solution and 5 μL of cysteine protease inhibitor solution of several concentrations, 80 μL of cathepsin L enzyme reaction buffer (400 mmol/L acetic acid, 4 mmol/L EDTA, 8 mmol/L DTT were mixed to adjust to pH 5.5) and 10 μL of cathepsin L enzyme solution were mixed and the increase of fluorescence intensity was measured (λex (excitation wavelength)=355 nm, λem (fluorescence wavelength)=460 nm) when reacted at 37° C.

cathepsin S = cathepsin S (Homo sapiens, UniProt P25774); assay: Measurement of cathepsin S inhibitory activity
cathepsin S, sequence (P25774 115-331, species assumed): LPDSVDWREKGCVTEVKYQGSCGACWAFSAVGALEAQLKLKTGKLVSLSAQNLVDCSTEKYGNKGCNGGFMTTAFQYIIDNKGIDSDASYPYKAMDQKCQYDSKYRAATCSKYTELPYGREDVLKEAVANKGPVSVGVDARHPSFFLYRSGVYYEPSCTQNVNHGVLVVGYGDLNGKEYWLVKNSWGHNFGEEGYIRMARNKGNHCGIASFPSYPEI
Experimental: (iii) Measurement of Cathepsin S Inhibitory Activity
10 μL of synthesized substrate (carbobenzoxy-L-leucyl-L-leucyl-L-arguinine-4-methyl-chromanyl-7-amide) solution and 5 μL of cysteine protease inhibitor solution of several concentrations, 75 μL of cathepsin S enzyme reaction buffer (100 mmol/L of sodium phosphate, 2 mmol/L of EDTA, 2 mmol/L of DTT were mixed to adjust to pH 6.5) and 10 μL of cathepsin S enzyme solution were mixed and the increase of fluorescence intensity was measured (λex (excitation wavelength)=355 nm, λem (fluorescence wavelength)=460 nm) when reacted at 37° C.

cathepsin K = biological target: T1, cathepsin K (Homo sapiens, UniProt P43235); assay: Measurement of cathepsin K inhibitory activity; conditions: Dixon plot, fluorogenic substrate, pH 5.5, 37° C.
T1 sequence (P43235 115-329): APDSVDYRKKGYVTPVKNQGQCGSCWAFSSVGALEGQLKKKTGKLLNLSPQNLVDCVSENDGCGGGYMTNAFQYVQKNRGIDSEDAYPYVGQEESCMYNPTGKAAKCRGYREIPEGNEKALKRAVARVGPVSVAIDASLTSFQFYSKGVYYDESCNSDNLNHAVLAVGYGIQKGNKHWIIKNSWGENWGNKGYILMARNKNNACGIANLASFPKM
Experimental: (i) Measurement of Cathepsin K Inhibitory Activity
65 μL of Cathepsin K enzyme reaction buffer (50 mmol/L of 2-(N-morpholino)ethanesulfonate, 2 mmol/L of ethylenediamine tetraacetate (EDTA) and 4 mmol/L of dithiothreitol (DTT) were mixed to adjust to pH 5.5), 5 μL of cysteine protease inhibitor solution of several concentrations, 20 μL of synthesized substrate (t-butyloxycarbonyl-L-alanyl-glycyl-L-prolyl-L-arginine-4-methyl-chromanyl-7-amide) solution of several concentrations and 10 μL of cathepsin K enzyme solution were mixed and the increase of fluorescence intensity when reacted at 37° C. was measured (λex (excitation wavelength)=355 nm, λem (fluorescence wavelength)=460 nm). As to the substrate and the compound of the present invention, enzyme reactions were carried out in combination of several appropriate concentrations and Dixon plotting was prepared, to define the absolute value of X-coordinate of the intersection point of the graph as Ki value.

`CC(C)C[C@H](NC(=O)[C@@H]1CCCC[C@@H]1NC(=O)c1ccccc1)C(=O)c1nnc(SCc2ccccc2)o1` [3 (5), 1-[(1R,2S)-2-benzoylaminocyclohexyl]-N-[(2S)-1-(5-benzylthio-1,3,4-oxadiazol-2-yl)-4-methyl-1-oxo-2-pentyl]carboxamide] was tested, and the inhibition at 1 µM (cathepsin B) was 100%.

Compound `CC(C)C[C@H](NC(=O)OCc1ccccc1)C(=O)N[C@@H](CC(C)C)C(=O)c1nn(CC2CCC2)c(=O)o1` [1 (21), (2S)-N-[(2S)-1-(3-cyclobutylmethyl-2-oxo-1,3,4-oxadiazolin-5-yl)-4-methyl-1-oxo-2-pentyl]-2-benzyloxycarbonylamino-4-methylpentanamide] has an inhibition at 1 µM (cathepsin L) of 92%.

For `CSc1nnc(C(=O)[C@H](CCc2ccccc2)NC(=O)[C@@H]2CCCC[C@@H]2NC(=O)c2ccccc2)o1` [3 (7), 1-[(1R,2S)-2-benzoylaminocyclohexyl]-N-[(2S)-1-(5-methylthio-1,3,4-oxadiazol-2-yl)-1-oxo-4-phenyl-2-butyl]carboxamide], the inhibition at 1 µM (cathepsin S) was 100%.

For `CC(C)C[C@H](NC(=O)OCc1ccccc1)C(=O)N[C@@H](CC(C)C)C(=O)c1nnc(SC(C)C)o1` [example 3], the Ki (cathepsin K) was 1.3 nM.
